Source: patent US7582628B2, “Pyrrolo[3,4-c]pyrazole derivatives active as kinase inhibitors, process for their preparation and pharmaceutical compositions comprising them” (Pfizer Italia S.r.l., priority 2003, dated 2009)
pIC50: −log10 of the molar value.

How the values were obtained:
Aurora-2 = molecular target: T1, Aurora-2 (Homo sapiens, UniProt O14965); test: Inhibition assay of Aurora-2 activity (SPA); assay type: biochemical; settings: 10 μM ATP, 60 minutes at room temperature
T1 sequence (O14965 1-403): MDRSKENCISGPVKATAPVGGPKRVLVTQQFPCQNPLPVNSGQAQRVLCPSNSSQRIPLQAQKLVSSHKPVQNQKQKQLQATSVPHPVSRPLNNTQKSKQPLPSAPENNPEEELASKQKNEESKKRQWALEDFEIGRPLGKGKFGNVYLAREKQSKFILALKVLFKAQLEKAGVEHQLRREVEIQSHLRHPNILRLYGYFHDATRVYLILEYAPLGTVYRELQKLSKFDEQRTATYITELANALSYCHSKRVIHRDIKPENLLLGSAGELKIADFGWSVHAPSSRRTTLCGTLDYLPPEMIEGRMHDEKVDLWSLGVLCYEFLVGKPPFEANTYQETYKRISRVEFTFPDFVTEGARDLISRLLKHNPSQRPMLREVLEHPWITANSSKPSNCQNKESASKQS
Protocol: The inhibiting activity and the potency of selected compounds is determined through a method of assay based on the use of the SPA technology (Amersham Pharmacia Biotech). The assay consists of the transfer of radioactivity labelled phosphate moiety by the kinase to a biotinylated substrate. The resulting 33P-labelled biotinylated product is allowed to bind to streptavidin-coated SPA beads (biotin capacity 130 pmol/mg), and light emitted was measured in a scintillation counter.
Inhibition Assay of Aurora-2 Activity
Kinase reaction: 8 μM biotinylated peptide (4 repeats of LRRWSLG), 10 μM ATP (0.5 uCi P^33γ-ATP), 7.5 ng Aurora 2, inhibitor in a final volume of 30 μl buffer (HEPES 50 mM pH 7.0, MgCl2 10 mM, 1 mM DTT, 0.2 mg/ml BSA, 3 μM orthovanadate) were added to each well of a 96 U bottom well plate. After 60 minutes at room temperature incubation, reaction was stopped and biotinylated peptide captured by adding 100 μl of bead suspension.
Stratification: 100 μl of CsCl2 5 M were added to each well and let stand 4 hour before radioactivity was counted in the Top-Count instrument.
IC50 determination: inhibitors were tested at different concentrations ranging from 0.0015 to 10 μM. Experimental data were analyzed by the computer program GraphPad Prizm using the four parameter logistic equation: y=bottom+(top−bottom)/(1+10^((log IC50−x)*slope)) where x is the logarithm of the inhibitor concentration, y is the response; y starts at bottom and goes to top with a sigmoid shape.

HCT-116 [1] = test: In vitro cell cycle analysis; assay type: cell-based, human; settings: HCT-116, 200 nM, treated for 24 hours
Protocol: In Vitro Cell Cycle Analysis
The human colon cancer cell line HCT-116 was seeded at 5000 cells/cm2 in 24 wells plate (Costar) and cultured as mentioned above. Cells in their exponential phase of growth were treated for 24 hours with different concentrations of compound. Also, culture medium supernatant was collected to avoid loss of detached apoptotic or mitotic cells. Thereafter, cells were washed using PBS and detached by 0.05% (w/v) trypsin, 0.02% (w/v) EDTA (Gibco). Trypsin activity was stopped using culture medium. Adherent and non-adherent cell fractions were pooled and centrifuged at 2000 rpm for 10 minutes. Cells were re-suspended in PBS and counted using a Multisizer 3 cell counter (Beckman Coulter). For fixation, ethanol was added (70%, v/v) and cells were kept at −20° C. overnight.
One million fixed cells were centrifuged at 2000 rpm for 5 minutes and washed with PBS and subsequently stained for 1 hour at room temperature in the dark by adding 200 µl: 25 µg/ml propidium iodide (Sigma) and 15 ug/ml RNAse A (Sigma), 0.001% (v/v) Nonidet P40 (Sigma) in sodium citrate (0.1% w/v, pH 7.5). Samples were analyzed by flow cytometry at 488 nm excitation (FACSCalibur, Beckton Dickinson) using Cell Quest 3.0 software (Beckton Dickinson). Typically 10000 events (activating doubles discriminate module DDM and gating only single cells) were collected and cell cycle profiles were recorded using CellQuest (Verity Software). Cell Cycle distribution of the population was calculated using a modified model in Modfit 3.1 software (Verity Software) and expressed in % G0/G1, S, G2/M and polyploidy.

HCT-116 [2] = test: In vitro cell proliferation assay; assay type: cell-based; settings: Homo sapiens; HCT-116, 72 hours of treatment; read-out: Cell Antiproliferation IC50
Protocol: In Vitro Cell Proliferation Assay
The human colon cancer cell line HCT-116 was seeded at 5000 cells/cm2 in 24 wells plate (Costar) using F12 medium (Gibco) supplemented with 10% FCS (EuroClone, Italy) 2 mM L-glutamine and 1% penicillin/streptomycin and maintained at 37° C., 5% CO2 and 96% relative humidity. The following day, plates were treated in duplicates with 5 ul of an appropriate dilution of compounds starting from a 10 mM stock in DMSO. Two untreated control wells were included in each plate. After 72 hours of treatment, medium was withdrawn and cells detached from each well using 0.5 ml of 0.05% (w/v) Trypsin, 0.02% (w/v) EDTA (Gibco). Samples were diluted with 9.5 ml of Isoton (Coulter) and counted using a Multisizer 3 cell counter (Beckman Coulter). Data were evaluated as percent of the control wells: % of CTR=(Treated−Blank)/(Control−Blank).
IC50 values were calculated by LSW/Data Analysis using Microsoft Excel sigmoidal curve fitting.

| SMILES | pIC50 (Aurora-2) | pIC50 (HCT-116 [2]) | Cell Cycle block (% G2/M + polyploidy at 200 nM) (HCT-116 [1]) |
| --- | --- | --- | --- |
| CO[C@@H](C(=O)N1Cc2[nH]nc(NC(=O)c3ccc(N4CCCCC4)cc3)c2C1)c1ccccc1 [Compound (6), N-{5-[(2R)-2-methoxy-2-phenylethanoyl]-1,4,5,6-tetrahydropyrrolo[3,4-c]pyrazol-3-yl}-4-piperidin-1-ylbenzamide] | 7.43 | 7.52 | 90% |
| C[C@@H](C(=O)N1Cc2[nH]nc(NC(=O)c3ccc(N4CCN(C)CC4)cc3)c2C1)c1ccccc1 [Compound (11), N-{5-[(2R)-2-methyl-2-phenylethanoyl]-1,4,5,6-tetrahydropyrrolo[3,4-c]pyrazol-3-yl}-4-(4-methylpiperazin-1-yl)benzamide] | 7.20 | 7.77 | 90% |
| CN1CCN(c2ccc(C(=O)Nc3[nH]nc4c3CN(C(=O)Cc3ccccc3)C4)cc2)CC1 [Reference compound, N-{5-phenylacetyl-4,6-dihydropyrrolo[3,4-c]pyrazol-3-yl}-4-(4-methylpiperazino)benzamide, reference compound] | 6.85 | 6.66 | 33% |

Continued, in another order:

| pIC50 (Aurora-2) | pIC50 (HCT-116 [2]) | SMILES | Cell Cycle block (% G2/M + polyploidy at 200 nM) (HCT-116 [1]) |
| --- | --- | --- | --- |
| 7.74 | 7.30 | CO[C@@H](C(=O)N1Cc2[nH]nc(NC(=O)c3ccc(N4CCN(C)C(C)C4)cc3)c2C1)c1ccccc1 (stereo partly drawn) [Compound (5), 4-(3,4-dimethylpiperazin-1-yl)-N-{5-[(2R)-2-methoxy-2-phenylethanoyl]-1,4,5,6-tetrahydropyrrolo[3,4-c]pyrazol-3-yl}benzamide] | 90% |
|  | 7.51 | CO[C@@H](C(=O)N1Cc2[nH]nc(NC(=O)c3ccc(N4CCN(C)CC4)cc3)c2C1)c1ccccc1 [Compound (1), N-{5-[(2R)-2-methoxy-2-phenylethanoyl]-1,4,5,6-tetrahydropyrrolo[3,4-c]pyrazol-3-yl}-4-(4-methylpiperazin-1-yl)benzamide] | 90% |
